Positions of bridges follow the written chain, without caps; N, C: chain ends. Non-standard residues stand in square brackets, D forms with d. Residues, ends and D or L forms follow the SMILES beside them. *: point of attachment. Trp(7-Me) = Cc1cccc2c(C[C@H](N)C(=O)O)c[nH]c12; 2Nal = N[C@@H](Cc1ccc2ccccc2c1)C(=O)O; AEF = NCCOc1ccc(C[C@H](N)C(=O)O)cc1; αMeF = C[C@](N)(Cc1ccccc1)C(=O)O; Cit = NC(=O)NCCC[C@H](N)C(=O)O; αMeL = CC(C)C[C@](C)(N)C(=O)O; Pen = CC(C)(S)[C@H](N)C(=O)O; Ac5c = NC1(C(=O)O)CCCC1; Thp = NC1(C(=O)O)CCOCC1; NHBn = c1ccc(CN*)cc1
What follows are compounds tested against IL-23R (Homo sapiens, UniProt Q5VWK5) (assay: cell-based). Conditions: PBMC pSTAT3 IC50 (nM), PBMCs from healthy donors, IL-23 5 ng/mL, 30 minutes, phosphorylated STAT3.
Sequence of IL-23R (Q5VWK5 24-629): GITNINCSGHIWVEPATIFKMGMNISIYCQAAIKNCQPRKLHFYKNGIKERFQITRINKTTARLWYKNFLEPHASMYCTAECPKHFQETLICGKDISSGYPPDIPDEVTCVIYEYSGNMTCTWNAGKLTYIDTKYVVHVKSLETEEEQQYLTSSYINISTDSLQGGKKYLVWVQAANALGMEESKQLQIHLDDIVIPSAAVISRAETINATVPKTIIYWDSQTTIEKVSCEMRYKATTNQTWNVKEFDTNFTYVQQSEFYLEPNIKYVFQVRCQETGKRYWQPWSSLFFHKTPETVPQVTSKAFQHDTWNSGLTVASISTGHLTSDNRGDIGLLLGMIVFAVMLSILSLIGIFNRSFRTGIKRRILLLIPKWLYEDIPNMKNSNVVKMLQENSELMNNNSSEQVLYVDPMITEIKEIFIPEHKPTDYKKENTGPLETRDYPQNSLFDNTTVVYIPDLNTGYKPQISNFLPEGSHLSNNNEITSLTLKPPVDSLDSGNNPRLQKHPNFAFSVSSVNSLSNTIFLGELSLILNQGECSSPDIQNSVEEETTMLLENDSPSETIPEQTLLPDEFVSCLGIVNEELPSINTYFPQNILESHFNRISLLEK
Description: Cryopreserved peripheral blood mononuclear cells (PBMCs) from healthy donors were thawed and washed twice in ImmunoCult-XF T cell expansion medium (XF-TCEM) supplemented with CTL anti-aggregate wash. […] The cells were stimulated with cytokine for 30 minutes at 37° C. in 5% CO2, transferred onto ice for 10 minutes, and lysed. Cell lysates were stored at −80° C. until phosphorylated STAT3 was measured using the phospho-STAT panel kit (Meso Scale Discovery, K15202D).
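Note: cryopreserved PBMCs stimulated at 37 °C in 5% CO2, then lysed, with phosphorylated STAT3 quantified in lysates using a phospho-STAT panel kit.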

| SMILES | IC50 [nM] |
| --- | --- |
| CC(=O)NCCCC[C@@H]1NC(=O)[C@H](Cc2c[nH]c3ccccc23)NC(=O)[C@H]([C@@H](C)O)NC(=O)[C@H](CC(N)=O)NC(=O)[C@@H](NC(=O)[C@@H](CCCNC(=N)N)NC(C)=O)C(C)(C)SSC(C)(C)[C@@H](C(=O)N[C@@H](Cc2ccc(OCCN)cc2)C(=O)N[C@@H](Cc2ccc3ccccc3c2)C(=O)NC2(C(=O)N[C@@H](CCC(=O)O)C(=O)N[C@@H](CC(N)=O)C(=O)N[C@@](C)(Cc3ccccc3)C(N)=O)CCCC2)NC1=O [Compound 102, Ac-[(D)Arg]-[Pen]-N-T-W-[Lys(Ac)]-[Pen]-Phe[4-(2-aminoethoxy)]-[2-Nal]-[Acvc]-E-N-[a-MePhe]-NH2] (Ac-[dR][Pen]NTWK(Ac)[Pen][AEF][2Nal][Ac5c]EN[αMeF]-NH2; disulfide 2-7) | 8.4 |
| CC(=O)NCCCC[C@H](NC(=O)[C@](C)(CCCCN)NC(=O)[C@H](Cc1ccc2ccccc2c1)NC(=O)[C@H](Cc1ccc(OCCN)cc1)NC(=O)[C@H]1NC(=O)[C@H](CCCCNC(=O)C(F)(F)F)NC(=O)[C@H](Cc2c[nH]c3ccccc23)NC(=O)[C@H]([C@@H](C)O)NC(=O)[C@H](CC(N)=O)NC(=O)[C@@H](NC(C)=O)C(C)(C)SSC1(C)C)C(=O)N[C@@H](CC(N)=O)C(=O)NC1(C(N)=O)CCOCC1 [Compound 103, Ac-[Pen]-N-T-W-[Lys(COCF3)]-[Pen]-Phe[4-(2-aminoethoxy)]-[2-Nal]-[a-MeLys]-[Lys(Ac)]-N-[THP]-NH2] | 57 |
| CC(=O)NCCCC[C@H](NC(=O)[C@](C)(CC(C)C)NC(=O)[C@H](Cc1ccc2ccccc2c1)NC(=O)[C@H](Cc1ccc(OCCN)cc1)NC(=O)[C@H]1NC(=O)[C@H](CCCNC(N)=O)NC(=O)[C@H](Cc2c[nH]c3c(C)cccc23)NC(=O)[C@H]([C@@H](C)O)NC(=O)[C@H](CC(N)=O)NC(=O)[C@@H](NC(C)=O)C(C)(C)SSC1(C)C)C(=O)N[C@@H](CC(N)=O)C(=O)N[C@@](C)(Cc1ccccc1)C(N)=O [Compound 104, Ac-[Pen]-N-T-[W(7-Me)]-[Cit]-[Pen]-Phe[4-(2-aminoethoxy)]-[2-Nal]-[aMeLeu]-[Lys(Ac)]-N-[a-MePhe]-NH2] (Ac-[Pen]NT[Trp(7-Me)][Cit][Pen][AEF][2Nal][αMeL]K(Ac)N[αMeF]-NH2; disulfide 1-6) | 8.2 |
| CC(=O)NCCCC[C@@H]1NC(=O)[C@H](Cc2c[nH]c3ccccc23)NC(=O)[C@H]([C@@H](C)O)NC(=O)[C@H](CC(N)=O)NC(=O)[C@@H](NC(=O)[C@@H](CCCNC(=N)N)NC(C)=O)C(C)(C)SSC(C)(C)[C@@H](C(=O)N[C@@H](Cc2ccc(OCCN)cc2)C(=O)N[C@@H](Cc2ccc3ccccc3c2)C(=O)NC2(C(=O)N[C@@H](CCC(=O)O)C(=O)N[C@@H](CC(N)=O)C(=O)NC3(C(N)=O)CCOCC3)CCOCC2)NC1=O [Compound 105, Ac-[(D)Arg]-[Pen]-N-T-W-[Lys(Ac)]-[Pen]-Phe[4-(2-aminoethoxy)]-[2-Nal]-[THP]-E-N-[THP]-NH2] (Ac-[dR][Pen]NTWK(Ac)[Pen][AEF][2Nal][Thp]EN[Thp]-NH2; disulfide 2-7) | 2.2 |
| CC(=O)NCCCC[C@@H]1NC(=O)[C@H](Cc2c[nH]c3ccccc23)NC(=O)[C@H]([C@@H](C)O)NC(=O)[C@H](CC(N)=O)NC(=O)[C@@H](NC(=O)[C@@H](CCCNC(=N)N)NC(C)=O)C(C)(C)SSC(C)(C)[C@@H](C(=O)N[C@@H](Cc2ccc(OCCN)cc2)C(=O)N[C@@H](Cc2ccc3ccccc3c2)C(=O)NC2(C(=O)N[C@@H](CCC(=O)O)C(=O)N[C@@H](CC(N)=O)C(=O)N[C@@](C)(Cc3ccccc3)C(N)=O)CCOCC2)NC1=O [Compound 106, Ac-[(D)Arg]-[Pen]-N-T-W-[Lys(Ac)]-[Pen]-Phe[4-(2-aminoethoxy)]-[2-Nal]-[THP]-E-N-[a-MePhe]-NH2] (Ac-[dR][Pen]NTWK(Ac)[Pen][AEF][2Nal][Thp]EN[αMeF]-NH2; disulfide 2-7) | 13 |
| CC(=O)NCCCC[C@@H]1NC(=O)[C@H](Cc2c[nH]c3c(C)cccc23)NC(=O)[C@H]([C@@H](C)O)NC(=O)[C@H](CC(N)=O)NC(=O)[C@@H](NC(C)=O)C(C)(C)SSC(C)(C)[C@@H](C(=O)N[C@@H](Cc2ccc(OCCN)cc2)C(=O)N[C@@H](Cc2ccc3ccccc3c2)C(=O)N[C@@](C)(CCCCN)C(=O)N[C@@H](CCCCNC(C)=O)C(=O)N[C@@H](CC(N)=O)C(=O)NC2(C(=O)N[C@H](Cc3ccc(O)cc3)C(N)=O)CCOCC2)NC1=O [Compound 107, Ac-[Pen]-N-T-[W(7-Me)]-[Lys(Ac)]-[Pen]-Phe[4-(2-aminoethoxy)]-[2-Nal]-[a-MeLys]-[Lys(Ac)]-N-[THP]-[(D)Tyr]-NH2] | 11 |
| CC(=O)NCCCC[C@H](NC(=O)[C@](C)(CC(C)C)NC(=O)[C@H](Cc1ccc2ccccc2c1)NC(=O)[C@H](Cc1ccc(OCCN)cc1)NC(=O)[C@H]1NC(=O)[C@H](CCCNC(N)=O)NC(=O)[C@H](Cc2c[nH]c3c(C)cccc23)NC(=O)[C@H]([C@@H](C)O)NC(=O)[C@H](CC(N)=O)NC(=O)[C@@H](NC(C)=O)C(C)(C)SSC1(C)C)C(=O)N[C@@H](CC(N)=O)C(=O)NC1(C(N)=O)CCOCC1 [Compound 108, Ac-[Pen]-N-T-[W(7-Me)]-[Cit]-[Pen]-Phe[4-(2-aminoethoxy)]-[2-Nal]-[aMeLeu]-[Lys(Ac)]-N-[THP]-NH2] (Ac-[Pen]NT[Trp(7-Me)][Cit][Pen][AEF][2Nal][αMeL]K(Ac)N[Thp]-NH2; disulfide 1-6) | 5.1 |
| CC(=O)N[C@H](CCCNC(=N)N)C(=O)N[C@@H]1C(=O)N[C@@H](CCC(N)=O)C(=O)N[C@@H]([C@@H](C)O)C(=O)N[C@@H](Cc2c[nH]c3ccccc23)C(=O)N[C@@H](CCC(N)=O)C(=O)N[C@H](C(=O)N[C@@H](Cc2ccc(OCCN)cc2)C(=O)N[C@@H](Cc2ccc3ccccc3c2)C(=O)NC2(C(=O)N[C@@H](CCC(=O)O)C(=O)N[C@@H](CC(N)=O)C(=O)N[C@@H](CC(=O)NCc3ccccc3)C(N)=O)CCOCC2)C(C)(C)SSC1(C)C [Compound 110, Ac-[(D)Arg]-[Pen]-Q-T-W-Q-[Pen]-Phe[4-(2-aminoethoxy)]-[2-Nal]-[THP]-E-N-[(N-benzyl)Asn]-NH2] (Ac-[dR][Pen]QTWQ[Pen][AEF][2Nal][Thp]END(NHBn)-NH2; disulfide 2-7) | 700 |
| CC(=O)NCCCC[C@@H]1NC(=O)[C@H](Cc2c[nH]c3c(C)cccc23)NC(=O)[C@H]([C@@H](C)O)NC(=O)[C@H](CC(N)=O)NC(=O)[C@@H](NC(C)=O)C(C)(C)SSC(C)(C)[C@@H](C(=O)N[C@@H](Cc2ccc(OCCN)cc2)C(=O)N[C@@H](Cc2ccc3ccccc3c2)C(=O)N[C@@](C)(CCCCN)C(=O)N[C@@H](CCCCNC(C)=O)C(=O)N[C@@H](CC(N)=O)C(=O)N[C@@](C)(Cc2ccccc2)C(=O)N[C@H](Cc2ccc(N)cc2)C(N)=O)NC1=O [Compound 114, Ac-[Pen]-N-T-[W(7-Me)]-[Lys(Ac)]-[Pen]-Phe[4-(2-aminoethoxy)]-[2-Nal]-[a-MeLys]-[Lys(Ac)]-N-[a-MePhe]-(D)Phe[4-NH2]-NH2] | 12 |
| CC(=O)NCCCC[C@@H]1NC(=O)[C@H](Cc2c[nH]c3c(C)cccc23)NC(=O)[C@H]([C@@H](C)O)NC(=O)[C@H](CC(N)=O)NC(=O)[C@@H](NC(C)=O)C(C)(C)SSC(C)(C)[C@@H](C(=O)N[C@@H](Cc2ccc(OCCN)cc2)C(=O)N[C@@H](Cc2ccc3ccccc3c2)C(=O)N[C@@](C)(CCCCN)C(=O)N[C@@H](CCCCNC(C)=O)C(=O)N[C@@H](CC(N)=O)C(=O)N[C@@](C)(Cc2ccccc2)C(=O)N[C@H](Cc2cccc(N)c2)C(N)=O)NC1=O [Compound 115, Ac-[Pen]-N-T-[W(7-Me)]-[Lys(Ac)]-[Pen]-Phe[4-(2-aminoethoxy)]-[2-Nal]-[a-MeLys]-[Lys(Ac)]-N-[a-MePhe]-(D)Phe[3-NH2]-NH2] | 39 |
| CC(=O)NCCCC[C@@H]1NC(=O)[C@H](Cc2c[nH]c3c(C)cccc23)NC(=O)[C@H]([C@@H](C)O)NC(=O)[C@H](CC(N)=O)NC(=O)[C@@H](NC(C)=O)C(C)(C)SSC(C)(C)[C@@H](C(=O)N[C@@H](Cc2ccc(OCCN)cc2)C(=O)N[C@@H](Cc2ccc3ccccc3c2)C(=O)N[C@@](C)(CCCCN)C(=O)N[C@@H](CCCCNC(C)=O)C(=O)N[C@@H](CC(N)=O)C(=O)N[C@@](C)(Cc2ccccc2)C(=O)N[C@@H](Cc2cccnc2)C(N)=O)NC1=O [Compound 116, Ac-[Pen]-N-T-[W(7-Me)]-[Lys(Ac)]-[Pen]-Phe[4-(2-aminoethoxy)]-[2-Nal]-[a-MeLys]-[Lys(Ac)]-N-[a-MePhe]-[3Pal]-NH2] | 20 |
| CC(=O)NCCCC[C@@H]1NC(=O)[C@H](Cc2c[nH]c3c(C)cccc23)NC(=O)[C@H]([C@@H](C)O)NC(=O)[C@H](CC(N)=O)NC(=O)[C@@H](NC(C)=O)CSSC[C@@](C)(C(=O)N[C@@H](Cc2ccc(OCCN)cc2)C(=O)N[C@@H](Cc2ccc3ccccc3c2)C(=O)N[C@@](C)(CCCCN)C(=O)N[C@@H](CCCCNC(C)=O)C(=O)N[C@@H](CC(N)=O)C(=O)NC2(C(N)=O)CCOCC2)NC1=O [Compound 117, Ac-[Cys]-N-T-[W(7-Me)]-[Lys(Ac)]-[aMeCys]-Phe[4-(2-aminoethoxy)]-[2-Nal]-[a-MeLys]-[Lys(Ac)]-N-[THP]-NH2] | 7.1 |
| CC(=O)NCCCC[C@@H]1NC(=O)[C@H](Cc2c[nH]c3c(C)cccc23)NC(=O)[C@H]([C@@H](C)O)NC(=O)[C@H](CC(N)=O)NC(=O)[C@@H](NC(C)=O)CSSC[C@@](C)(C(=O)N[C@@H](Cc2ccc(OCCN)cc2)C(=O)N[C@@H](Cc2ccc3ccccc3c2)C(=O)N[C@@](C)(CCCCN)C(=O)N[C@@H](CCCCNC(C)=O)C(=O)N[C@@H](CC(N)=O)C(=O)N[C@@](C)(Cc2ccccc2)C(N)=O)NC1=O [Compound 118, Ac-[Cys]-N-T-[W(7-Me)]-[Lys(Ac)]-[aMeCys]-Phe[4-(2-aminoethoxy)]-[2-Nal]-[a-MeLys]-[Lys(Ac)]-N-[a-MePhe]-NH2] | 30 |
| CC(=O)NCCCC[C@H](NC(=O)[C@](C)(CCCCN)NC(=O)[C@H](Cc1ccc2ccccc2c1)NC(=O)[C@H](Cc1ccc(OCCN)cc1)NC(=O)[C@]1(C)CSSC[C@H](NC(C)=O)C(=O)N[C@@H](CC(N)=O)C(=O)N[C@@H]([C@@H](C)O)C(=O)N[C@@H](Cc2c[nH]c3c(C)cccc23)C(=O)N[C@@H](CCC(N)=O)C(=O)N1)C(=O)N[C@@H](CC(N)=O)C(=O)N[C@@](C)(Cc1ccccc1)C(N)=O [Compound 119, Ac-[Cys]-N-T-[W(7-Me)]-Q-[aMeCys]-Phe[4-(2-aminoethoxy)]-[2-Nal]-[a-MeLys]-[Lys(Ac)]-N-[a-MePhe]-NH2] | 5.3 |

From US20240383954A1, “PEPTIDE INHIBITORS OF INTERLEUKIN-23 RECEPTOR AND THEIR USE TO TREAT INFLAMMATORY DISEASES” (Janssen Biotech, Inc., priority 2020, published 2024)
